Assay results published in ChEMBL document CHEMBL4017485, “Chromone as a Privileged Scaffold in Drug Discovery: Recent Advances” (J Med Chem, 2017).
≈ marks a conversion by molar mass, not a printed value. Each block holds one molecule with its values, some of them ahead of it.

Assays:
[1] = Antioxidant activity assessed as DPPH free radical scavenging activity; format: functional
[2] = Inhibition of Saccharomyces cerevisiae alpha-glucosidase using PNP-G as substarte
Pseudomonas aeruginosa = assay: Antibacterial activity against Pseudomonas aeruginosa ATCC 13384 after 16 hrs by broth dilution method; format: functional; details: ATCC 13384, 16 h
Entamoeba histolytica = assay: Antiamoebic activity against trophozoite stage of Entamoeba histolytica HM-1:IMSS incubated for 24 hrs measured after 48 hrs by dilution micromethod; format: functional
Staphylococcus aureus = assay: Antibacterial activity against Staphylococcus aureus ATCC 6538 after 16 hrs by broth dilution method; format: functional; details: ATCC 6538, 16 h
Candida tropicalis = assay: Antifungal activity against Candida tropicalis after 24 hrs by Neubauer chamber method; format: functional
KB = assay: Antiproliferative activity against human KB cells after 4 hrs by MTT assay; format: functional, cell-based
Beta-secretase 1 = Beta-secretase 1 (Homo sapiens, UniProt P56817); assay: Inhibition of recombinant human BACE-1 using rhodamine labelled EVNLDAEFK as substrate after 90 mins by FRET assay
Sequence of Beta-secretase 1 (P56817 whole entry): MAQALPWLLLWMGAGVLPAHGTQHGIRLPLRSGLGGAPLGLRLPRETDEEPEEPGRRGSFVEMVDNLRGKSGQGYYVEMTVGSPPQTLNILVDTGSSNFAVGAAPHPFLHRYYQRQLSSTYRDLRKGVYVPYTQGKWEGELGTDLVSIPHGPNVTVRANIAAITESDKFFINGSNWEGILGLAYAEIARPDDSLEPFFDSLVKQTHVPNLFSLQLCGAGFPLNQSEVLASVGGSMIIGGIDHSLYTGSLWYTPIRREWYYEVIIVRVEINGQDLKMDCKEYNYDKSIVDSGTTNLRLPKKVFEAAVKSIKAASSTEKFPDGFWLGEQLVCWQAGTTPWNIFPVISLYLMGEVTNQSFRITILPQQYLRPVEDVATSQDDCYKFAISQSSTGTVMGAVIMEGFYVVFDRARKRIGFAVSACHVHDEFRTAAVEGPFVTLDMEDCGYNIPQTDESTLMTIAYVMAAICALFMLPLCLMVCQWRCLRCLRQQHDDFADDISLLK

Acetylcholinesterase = Acetylcholinesterase (Electrophorus electricus, UniProt O42275); assay: Inhibition of electric eel AChE using acetylthiocholine iodide as substrate preincubated with substrate for 15 mins followed by protein addition measured after 5 mins by Ellaman's method
Sequence of Acetylcholinesterase (O42275 whole entry): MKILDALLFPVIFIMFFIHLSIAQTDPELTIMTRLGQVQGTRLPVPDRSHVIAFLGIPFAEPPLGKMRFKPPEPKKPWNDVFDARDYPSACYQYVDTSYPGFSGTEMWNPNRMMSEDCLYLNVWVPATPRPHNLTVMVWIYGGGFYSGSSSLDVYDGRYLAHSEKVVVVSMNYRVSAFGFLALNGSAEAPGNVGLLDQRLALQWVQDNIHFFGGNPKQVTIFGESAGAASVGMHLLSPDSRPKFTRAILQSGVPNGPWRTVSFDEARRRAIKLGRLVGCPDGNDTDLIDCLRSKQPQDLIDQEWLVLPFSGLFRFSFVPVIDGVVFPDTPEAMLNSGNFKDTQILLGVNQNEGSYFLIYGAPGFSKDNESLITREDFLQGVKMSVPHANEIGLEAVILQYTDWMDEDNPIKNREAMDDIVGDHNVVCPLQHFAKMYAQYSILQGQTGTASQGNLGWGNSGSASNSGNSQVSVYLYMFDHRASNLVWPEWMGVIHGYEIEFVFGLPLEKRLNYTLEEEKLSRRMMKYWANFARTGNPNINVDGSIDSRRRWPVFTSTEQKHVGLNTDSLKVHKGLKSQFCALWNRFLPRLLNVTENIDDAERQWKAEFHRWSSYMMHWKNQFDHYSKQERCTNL

[3] = biological target: T1, Amine oxidase [flavin-containing] B (Homo sapiens, UniProt P27338); assay: Inhibition of human MAO-B using p-tyramine as substrate by amplex red-based fluorescence assay
T1 sequence (P27338 whole entry): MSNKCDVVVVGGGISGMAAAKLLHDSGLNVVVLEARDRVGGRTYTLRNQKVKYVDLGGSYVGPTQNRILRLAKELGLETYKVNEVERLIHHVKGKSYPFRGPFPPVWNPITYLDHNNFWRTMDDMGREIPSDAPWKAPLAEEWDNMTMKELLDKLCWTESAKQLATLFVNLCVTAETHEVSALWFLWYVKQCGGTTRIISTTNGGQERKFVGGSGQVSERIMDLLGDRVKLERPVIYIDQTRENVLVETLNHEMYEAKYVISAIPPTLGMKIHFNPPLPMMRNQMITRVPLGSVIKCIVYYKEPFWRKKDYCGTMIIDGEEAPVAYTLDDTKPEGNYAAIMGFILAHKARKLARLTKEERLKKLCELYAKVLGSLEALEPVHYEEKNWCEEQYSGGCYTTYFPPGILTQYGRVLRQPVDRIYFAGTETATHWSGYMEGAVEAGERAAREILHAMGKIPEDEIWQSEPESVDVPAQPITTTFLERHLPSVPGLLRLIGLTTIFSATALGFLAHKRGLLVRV

MCF7 = assay: Antiproliferative activity against human MCF7 cells after 4 hrs by MTT assay; format: functional, cell-based; details: MCF7, 4 h
MG-63 = assay: Antiproliferative activity against human MG63 cells after 48 hrs by MTT assay; format: functional, cell-based; details: MG-63, 48 h
U2OS = assay: Antiproliferative activity against human U2OS cells after 48 hrs by MTT assay; format: functional, cell-based

SMILES: CC(C)(C)n1nnnc1C(Nc1ccccc1I)c1coc2ccccc2c1=O (stereo unspecified)
MIC (Pseudomonas aeruginosa): 160 µg/mL (≈ 319 µM) | IC50 (Entamoeba histolytica): 61.7 µg/mL (≈ 123 µM) | MIC (Staphylococcus aureus): 40 µg/mL (≈ 79.8 µM)

SMILES: COc1cc(NC(c2coc3cc(F)ccc3c2=O)c2nnnn2C2CCCCC2)cc(OC)c1OC (stereo unspecified)
MIC (Pseudomonas aeruginosa): 80 µg/mL (≈ 157 µM) | MIC (Staphylococcus aureus): 160 µg/mL (≈ 314 µM) | MIC (Candida tropicalis): 6250 µg/mL (≈ 12300 µM)

SMILES: CCCCCC(=O)Oc1ccc2c(=O)c(C3C(OC(=O)CC)=C(C)NC(C)=C3OC(=O)CC)coc2c1
IC50 (Beta-secretase 1): 6.84 µM

SMILES: O=C1/C(=C/C2=COC3C=CC(Br)=CC3C2=O)COc2ccccc21 (stereo unspecified)
IC50 (Acetylcholinesterase): 0.96 µM

SMILES: Cc1ccc(N/C=C2\C(=O)Oc3ccccc3C2=O)cc1
IC50 [3]: 0.0423 µM

SMILES: NC1=C(/C=C2\COc3ccccc3C2=O)C(=O)C2C=CC=CC2O1 (stereo unspecified)
IC50 (Acetylcholinesterase): 0.27 µM

SMILES: O=c1c(/C=C/c2ccc(O)c(O)c2)coc2ccc(O)cc12
EC50 [1]: 17 µM | IC50 [2]: 16 µM

SMILES: CC(C)(C)n1nnnc1C(Nc1ccc(Cl)cc1)c1coc2cc(F)ccc2c1=O (stereo unspecified)
IC50 (Entamoeba histolytica): 61.7 µg/mL (≈ 144 µM)

More lines, main results first:

EC50 [1]: 13 µM | IC50 [2]: 28 µM
SMILES: COc1ccc2c(c1)OC/C(=C\c1ccc(O)c(O)c1)C2=O

IC50 (KB): 44.1 µg/mL (≈ 145 µM)
SMILES: COc1ccc2c(=O)c(/C=C3\SC(=O)NC3=O)coc2c1

MIC (Pseudomonas aeruginosa): 20 µg/mL (≈ 50.8 µM) | MIC (Staphylococcus aureus): 80 µg/mL (≈ 203 µM)
SMILES: CC(C)(C)n1nnnc1C(Nc1ccccc1)c1coc2cc(F)ccc2c1=O (stereo unspecified)

IC50 (MCF7): 32.8 µg/mL (≈ 103 µM)
SMILES: COc1ccc2c(=O)c(/C=C3\SC(=O)N(C)C3=O)coc2c1

IC50 (U2OS): 63 µM
SMILES: O=c1cc(N2CCOCC2)oc2c(-c3ccccc3)cccc12 [LY-294002]
IC50 (MG-63): 55.2 µM
